Data as given in patent US8206756B2, “Herbal composition for inflammatory disorders” (Piramal Life Sciences Limited, priority 2005, dated 2012).

Legend:
[1] = tested on: THP-1 cell adhesion to HUVECs; assay: Adhesion of THP-1 mononuclear cells to HUVEC monolayers; format: cell-based, human; details: for Fluorescence Intensity: TNF-α 1 ng/ml; for Fold of control: unstimulated DMSO control = 1, stimulated = 18
Experimental: Adhesion studies were performed with the promonocytic cell line THP-1, which has been established as a useful model for monocytes in adhesion studies in Circ. Res., 97, 236-243, 2005, with modifications. THP-1 cells were washed twice with labeling medium (M200 plus LSGS). THP-1 cells (6×10^5 cells per ml) were labeled with 10 μg/ml bis-carboxyethyl-carboxyfluorescein acetoxymethylester (a fluorescent probe, BCECF-AM; Sigma) for 30 min at RT. After quenching with 0.1% BSA, the pellet was resuspended in labeling medium. To evaluate monocyte adhesion, HUVEC monolayers treated with TNF-α (1 ng/ml) in the presence or absence of various concentrations of test sample. The media was removed, washed and labeled-THP-1-cells were added to the wells (6×10^4 cells per well) and incubated for 10 minutes at RT in the dark. After co incubation, the wells were washed, filled with lysis buffer (0.1% Triton-X in 1.5 M Tris buffer) and incubated for 30 min. The fluorescence was measured using a fluorescent reader (PolarStar Optima, BMG Labtech) at an excitation peak of 485 nm and an emission peak of 520 nm. Values are means±SEM, representing fluorescent adhesion data. BAY 11-7082 [(E)-3-(4-methylphenylsulfonyl)-2-propenenitrile] was used as a standard and DMSO as vehicle control.

E-Selectin = assay: Cell-ELISA for adhesion molecule expression in HUVECs: E-Selectin; format: cell-based; details: Homo sapiens; TNF-α-induced surface expression, HUVEC
Experimental: The assay was designed on the basis of reference Transplantation, Vol 63(5), 759-764, 1997 with modifications.
Human Umbilical Vein Endothelial Cells (HUVECs) were obtained from Cascade Biologics and were maintained in M200 (Cascade Biologics, Portland, Oreg.) supplemented with low serum growth supplement (LSGS) at 37° C. in a 5% CO2 incubator. U937 cells (ATCC, Manassas, Va.) were grown in the RPMI 1640 medium supplemented with 10% FBS (Hyclone, Logan, Utah). Recombinant human TNFα, antibodies to VCAM-1, ICAM-1, E-Selectin were obtained from R&D Systems and LPS was obtained from Sigma (St. Louis, Mo.).
HUVECs were plated at […] in 96-well fibronectin-coated plates. The cells were stimulated with TNF-α (10 ng/ml) or LPS (1 μg/ml), 30 min after addition of test compound. After stimulation, cells (E-Selectin and ICAM-1) were fixed with paraformaldehyde in phosphate buffer saline (PBS). Non specific binding was blocked by 2% bovine serum albumin (BSA) in phosphate buffer saline (PBS) for 1 h, and the cells were incubated with primary antibody for 2 h. […] After washing, seven times, 3,3′5,5′-tetramethylbenzidine liquid substrate (TMB substrate) was added and the optical density of each well was determined at 450 nm using a microtitre plate reader (Spectramax, Molecular Devices, Calif.). […] Percent inhibition of the test sample compared to the control is evaluated. […]

TNF-α = assay: LPS-induced TNF-α release in BALB/c mice; format: in vivo; details: LPS 1 mg/kg i.p., plasma
Experimental: The protocol described by Fukuda T. et al (Eur. J. Pharmacol., 391: 317-320, (2000)) was followed. BALB/c mice were divided into groups of ten each. The test sample, suspended in Tween 80 and 0.5% carboxy methylcellulose (CMC), was orally (p.o.) administered to the mice. One hour later, LPS dissolved in sterile, pyrogen-free saline was administered i.p. at the dose of 1 mg/kg. The negative control group received saline as an i.p injection, while all other groups received LPS. Rolipram (30 mg/kg, p.o.) was used as the standard drug. One and a half hours later, under urethane anaesthesia (1.5 g/kg, i.p.) blood was collected from the abdominal artery using a 1 ml syringe flushed with heparin (500 IU/ml). Heparin (5 μl) was used as an anticoagulant in the blood collection tubes. Plasma was separated by centrifugation at 10000 rpm at room temperature, aliquoted and stored at −70° C. until analysis. TNF-α levels in the blood samples were assayed using ELISA and percent inhibition of TNF-α release compared to the control group was calculated.

IC50 (E-Selectin): 200 nM
Compound: C=C1C(=O)OC2C3=C(C)CCCC3(C)CCC12O (stereo not shown) [Compound 1, 3a-hydroxy-5a,9-dimethyl-3-methylene-3a,4,5,5a,6,7,8,9b-octahydro-3H-naphtho[1,2-b]furan-2-one]
Fluorescence Intensity ([1]; 0.1 μM): 33421
Fold of control ([1]; 0.1 μM): 13
Fluorescence Intensity ([1]; 0.3 μM): 34024
Fold of control ([1]; 0.3 μM): 13
Fluorescence Intensity ([1]; 1 μM): 10195
Fold of control ([1]; 1 μM): 4
Fluorescence Intensity ([1]; 3 μM): 5728
Fold of control ([1]; 3 μM): 2
TNF-α stimulated monocytic THP-1 cell adhesion to HUVECs ([1]; at 1 μM): inhibited
% inhibition of TNF-α release (TNF-α; 10 mg/kg p.o.): 28.69 ± 13.71%
% inhibition of TNF-α release (TNF-α; 30 mg/kg p.o.): 39.98 ± 10.32%
% inhibition of TNF-α release (TNF-α; 100 mg/kg p.o.): 87.10 ± 3.67%
